Results: patent US10208043B2, “Methods for inhibiting fascin” (Novita Pharmaceuticals, Inc., priority 2012, dated 2019)

Key:
4T1 breast tumor cells [1] = test: Tumor metastasis in mouse models (lung metastasis, 6-thioguanine clonogenic assay); type: in vivo, Balb/c mice; settings: 4T1 cells in mammary fat-pad, n=5, P<0.01
Protocol: Lung metastasis was measured by the 6-thioguanine clonogenic assay. […] Results are mean±SD (n=5). *, P<0.01.
Tumor cell migration is essential for tumor metastasis. […] Tumor cells (4T1 breast tumor cells) were injected into the mammary fat-pad of mice. The metastasis of these breast tumor cells from the mammary gland to the lung was monitored by the clonogenic assay.
Balb/c mice were purchased from Charles River. All animal procedures were approved by the Animal Care and Use Committees of the Weill Cornell Medical College and performed in accordance with institutional polices. For xenograft tumor metastasis studies, 5×10^5 4T1 cells were suspended in 100 μL PBS and injected subcutaneously into the mammary glands of 6-8 week old female Balb/c mice. Tumor incidence was monitored for 21 days after injection. Tumor size was measured three times a week, and the volume was calculated using the formula length×width^2×0.5. Compound treatment was initiated 7 days after tumor implantation; animals were administered daily with indicated dose for 2 weeks. On day 28, the mice were sacrificed. Numbers of metastatic 4T1 cells in lungs were determined by the clonogenic assay. […] Data are expressed as mean±S.D. and analyzed by Student's t test with significance defined as p<0.05.

fascin = fascin (Homo sapiens (Human), UniProt Q16658); test: High throughput fascin inhibition assay (actin bundling, F-actin imaging); type: biochemical
Protocol: A high throughput assay was developed to screen for fascin specific inhibitors. Purified polymerized F-actin with or without fascin were mixed and incubated to allow actin bundle formation. F-actin polymers were then bound to the poly-D-lysine coated plates. […] Four images were taken from each well and the average fiber length was analyzed for each tested compound.
Recombinant human fascin 1 was expressed as a GST fusion protein in BL21 Escherichia coli. One liter of 2YT medium with ampicillin was inoculated overnight with 3 mL of BL21/DE3 culture transformed with pGEX4T-fascin 1 plasmid and grown at 37° C. until attenuance at 600 nm (D600) reached about 0.8. The culture was then transferred to 18° C. and induced by the addition of 0.1 mM isopropyl β-d-thiogalactoside (IPTG) for 12 h. Bacteria were harvested by centrifugation at 5,000 r.p.m. for 10 min. The pellets were suspended in 30 mL of PBS supplemented with 0.2 mM PMSF, 1 mM DTT, 1% (v/v) Triton X-100 and 1 mM EDTA. After sonication, the suspension was centrifuged at 15,000 r.p.m. for 30 min to remove the cell debris. The supernatant was then incubated for 2 h with 4 mL of glutathione beads (Sigma) at 4° C. After extensive washing with PBS, the beads were resuspended in 10 mL of thrombin cleavage buffer (20 mM Tris-HCl pH 8.0, 150 mM NaCl, 2 mM CaCl2, 1 mM DTT). Fascin was released from the beads by incubation overnight with 40-100 U of thrombin at 4° C. After centrifugation, 0.2 mM PMSF was added to the supernatant to inactivate the remnant thrombin activity. The fascin protein was further concentrated with a Centricon® (Boca Raton, Fla.) filter to about 50 mg/mL.
About 150,000 compounds were screened. […] Purified fascin protein (15 μL of 0.5 μM) in buffer (100 mM KCl, 20 mM Tris/HCl, pH 7.5, 2 mM MgCl2) was added into each well of a clear 384-well flat-bottom plate (Corning) using Thermo Multidrop Combi (Fisher). Compound ([…]) solutions (5 mM stock) from various chemical libraries were pin transferred from stock 384-well plates into the 384-well assay plates and incubated for 30 min. Then 15 μL of 0.5 μM polymerized actin (in 100 mM KCl, 20 mM Tris/HCl, pH 7.5, 2 mM MgCl2, 1 mM DTT, 1 mM ATP) (Cytoskeleton Inc.) was added, resulting in 30 μM final concentration for chemical compounds. […] Mixed solution (25 μL) was then transferred to one well in a black 384-well plate coated with poly-D-lysine, and stained actin bundles or F-actin would stick onto the poly-D-lysine plates. After the plates were thoroughly washed with 1×PBS for 3 times, the plate was imaged using an ImageXpress Micro High Content Screening System (Molecular devices). The images were processed and analyzed using MetaMorph software. The raw image data for each well was background-corrected by subtraction of the median intensities across all wells on the plate. The background-corrected data was used to compute the bundle length for each well. The negative control wells were employed for quality control: multiple DMSO-only control wells (16 wells/plate) were present on each assay plate.

[2] = test system: MDA-MB-231 breast tumor cells; test: Boyden-chamber cell migration assay, MDA-MB-231; type: cell-based; settings: Homo sapiens
Protocol: (§1) Since fascin is critical for tumor cell migration, inhibitors of fascin should block tumor cell migration. Representative compounds were selected from the above-identified fascin inhibitors to test their abilities on inhibition of tumor cell migration (See Table 2). […] The cell lines used are listed below.
(§2) Exemplifying procedure: MDA-MB-231 cells (5×10^4) or 4T1 Cells (1×10^5) suspended in 100 μL starvation medium were added to the upper chamber of an insert (6.5 mm diameter, 8 μm pore size; Becton Dickson), and the insert was placed in a 24-well plate containing 700 μL starvation medium with or without 10% FBS. […] Migration assays were performed for 6 h and cells were fixed with 3.7% formaldehyde. Cells were stained with crystal violet staining solution, and cells on the upper side of the insert were removed with a cotton swab. Three randomly selected fields (×10 objectives) on the lower side of the insert were photographed, and the migrated cells were counted. Migration was expressed as average number of migrated cells in a field.

4T1 breast tumor cells [3] = test: Boyden-chamber cell migration assay, 4T1; type: cell-based
Protocol: as §1, §2

[4] = test system: DU145 prostate tumor cells; test: Boyden-chamber cell migration assay, DU145; type: cell-based; settings: Homo sapiens, DU-145
Protocol: (§3) Since fascin is critical for tumor cell migration, inhibitors of fascin should block tumor cell migration. Representative compounds were selected from the above-identified fascin inhibitors to test their abilities on inhibition of tumor cell migration (See Table 2). […] Therefore, tumor cells with fascin expression are likely sensitive to these fascin inhibitors. The cell lines used are listed below.
(§4) Exemplifying procedure: MDA-MB-231 cells (5×10^4) or 4T1 Cells (1×10^5) suspended in 100 μL starvation medium were added to the upper chamber of an insert (6.5 mm diameter, 8 μm pore size; Becton Dickson), and the insert was placed in a 24-well plate containing 700 μL starvation medium with or without 10% FBS. When used, inhibitors were added to the lower chamber. Migration assays were performed for 6 h and cells were fixed with 3.7% formaldehyde. Cells were stained with crystal violet staining solution, and cells on the upper side of the insert were removed with a cotton swab. Three randomly selected fields (×10 objectives) on the lower side of the insert were photographed, and the migrated cells were counted. Migration was expressed as average number of migrated cells in a field.

[5] = test system: PC-3 prostate tumor cells; test: Boyden-chamber cell migration assay, PC-3; type: cell-based
Protocol: as §3, §4

LLC lung tumor cells = test: Boyden-chamber cell migration assay, LLC; type: cell-based
Protocol: as §3, §4

[6] = Actin + Fascin + compound at 30 μM

IC50 (fascin) [µM]	IC50 [2] [µM]	IC50 (4T1 breast tumor cells [3]) [µM]	fiber growth (fascin; 30 μM)	Average fiber length (fascin; [6]) [arbitrary unit]	Average fiber thickness (fascin; [6]) [arbitrary unit]	IC50 [4] [µM]	IC50 [5] [µM]	IC50 (LLC lung tumor cells) [µM]	SMILES	tumor metastasis from mammary gland to lung (4T1 breast tumor cells [1]; 30 mg/kg daily for 2 weeks)	tumor metastasis from mammary gland to lung (4T1 breast tumor cells [1]; 8 mg/kg daily for 2 weeks)
0.807									COc1ccc(S(=O)(=O)Nc2cc(Sc3nc[nH]n3)c(O)c3ccccc23)cc1 [Compound 10, N-(3-(1H-1,2,4-triazol-3-ylthio)-4-hydroxynaphthalen-1-yl)-4-methoxybenzenesulfonamide]	decreased the tumor metastasis	
0.5	30	50							C/N=c1/nc(-c2ccccc2)n(-c2ccccc2)s1 [Compound 4, (Z)-N-(2,3-diphenyl-1,2,4-thiadiazol-5(2H)-ylidene)methanamine]		
0.652	25	20	inhibited fiber growth	0.39	0.35	25	25	25	O=[N+]([O-])c1ccc(Cl)c(S(=O)(=O)Nc2nc3ccc(Cl)cc3s2)c1 [Compound 3, 2-chloro-N-(6-chlorobenzo[d]thiazol-2-yl)-5-nitrobenzenesulfonamide]		decreased the tumor metastasis
